Results taken from patent EP0096006A2, “3-(Ureidocyclohexylamino)-propane-1,2-diol derivatives, process for their preparation, pharmaceutical preparations containing these compounds and their therapeutical use” (CIBA-GEIGY AG, priority 1982, dated 1983).

Legend:
[1] = system: spontan hypertensiven Ratten; assay: Systolic blood pressure and heart rate in conscious spontaneously hypertensive rats (tail sphygmomanometry), oral dosing; format: in vivo; conditions: for Abnahme des Bludrucks: second day, 2 hours after dosing; for antihypertensive Wirkung / bradycardische (d.h. die Herzfrequenz herabsetzende) Wirkung: low doses of 10 mg/kg or below
Text: Die in vivo blutdrucksenkende Wirkung wird entweder direkt mit einem Katheter, der z.B. in die fumurale Arterie eines Hundes eingeführt ist, oder indirekt durch Sphygmomanometrie am Rattenschwanz, und einem Uebertragungsinstrument registriert. Der Bludruck wird vor und nach der Verabreichung des Wirkstoffes in mmHg bestimmt.
So kann die antihypertensive Wirkung und die Reduktion der Herzfrequenz bei spontan hypertensiven Ratten nachgewiesen werden, indem man indirekt durch Sphygmomanometrie am Rattenschwanz den systolischen Druck misst. Wache Ratten werden einzeln in Käfige gesperrt, welche sich in einem angenehm warmen Raum befinden. Nachdem Kontrollwerte für Blutdruck und Herzfrequenz gemessen words-n sind, werden die Testverbindungen oral einmal täglich an 2 oder 4 aufeinanderfolgenden Tagen verabreicht. Der Blutdruck wird gewöhnlich 24 Stunden nach der ersten Dosis und dann jeweils 2,0, 4,0 und 24 Stunden nach jeder täglichen Dosis bestimmt, und die Wirkung mit der bei solchen Ratten verglichen, die mit dem Trägermaterial behandelt worden sind.
Gemäss der vorher beschriebenen Methode werden wache Ratten einzeln in Käfige gestellt. Zuerst werden die Kontrollwerte des Blutdrucks ermittelt und dann die einzelnen Testverbindungen einmal täglich, an zwei aufeinanderfolgenden Tagen, oral verabreicht.

[2] = biological target: β-adrenergischen Rezeptoren; assay: β-receptor binding test in vitro: inhibition of 3H-dihydroalprenolol binding to brain membrane preparation; design: species or system Kalb; conditions: calf brain caudate membranes; 10 min at 37°C; determined graphically; read-out: IC50 (Hemmung der spezifischen Bindung von 1,0 nM 3H-Dihydroalprenolol)
Text: Die β-adrenergische Rezeptorbindungseigenschaften, welche β-adrenergische regulierende, z.B. blockierende Wirkung der genannten neuen Verbindungen anzeigen, werden in einem Test der β-Rezeptorbindung in vitro nach einer Modifikation des Verfahrens bestimmt, wie es in Life Sciences 17, 993 (1975) beschrieben ist.
^3H-Dihydroalprenolol wird spezifisch von Gehirnmembran-Präparaten gebunden und diese Wirkung wird durch bekannte Agonisten und Antagonisten von β-adrenergischen Rezeptoren gehemmt.
Beim Bindungstest werden 2 ml-Proben der Suspension eines Membranpräparates (welches etwa 20 mg Kalbshirn-Caudaten entspricht) in eisgekühlte Reagenzgläser gegeben, welche ^3H-Dihydroalprenolol mit oder ohne Testverbindung, frisch gelöst in 0,1% Ascorbinsäure, enthalten. Die Endkonzentration von ^3H-Dihydroalprenolol ist 1,0 nM. Die Testverbindungen werden innerhalb einer weiten Konzentrationsreihe geprüft. Die Reagenzgläser werden 10 Minuten bei 37°C inkubiert, und die Suspensionen dann sofort unter Vakuum durch Fiberglasfilter filtriert. Die Filter werden mit 15 ml kalter 50 mM Tris-HCi (pH 7,9 bei 25°C) gewaschen, zusammen mit 12 ml Szintillationslösung in Szintillationsampullen gegeben, zunächst 90 Minuten geschüttelt und dann mit dem Zählrohr auf Radioaktivität untersucht.
Die IC50 Werte (welche die Konzentration der Testverbindungen angeben, die nötig ist, um die spezifische Bindung der 1,0 nM ^3H-Dihydrcal- prenolol-Lösung um 50% zu verringern) werden graphisch bestimmt.
Die erfindungsgemässen Verbindungen hemmen die β-Rezeptorbildung des Dihydroalprenolols mit IC50 Werten von […] oder darunter. Beispielsweise weisen die Verbindungen der Beispiele 1, 2a, 3b und 3c IC50-Werte von etwa […] auf.

[3] = system: normotensiven Kaninchen; assay: Intraocular pressure reduction in normotensive rabbits, topical application (anti-glaucoma effect); format: in vivo
Description: Die Anticlaucoma-Wirkung der erfindungsgemässen Verbindungen ist an der intraokularen Druckverminderung abzulesen, die an Säugetieren, z.B. bei normotensiven Kaninchen, im wesentlichen nach der von D.E. Potter und J.M. Rowland in Experimental Eye Research 27, 615-625, (1978) beschriebenen Methodik nachgewiesen werden kann. Die intraokulare Druckverminderung wird wie folgt bestimmt: 2 x 50 µl einer Lösung der Testverbindung in sterilisiertem Wasser von unterschiedlicher Konzentration werden bei männlichen, neuseeländischen Albinokaninchen, die 3-4 kg wiegen, jeweils auf ein Auge appliziert, und 2 x 50 µl des Trägermaterials werden zur Kontrolle auf das kontralaterale Auge appliziert. Der intraokulare Druck (in mm Hg) in jedem Auge wird direkt vor der Behandlung tonometrisch gemessen, und dann 1,2 bzw. 3 Stunden nach der Verabreichung. Es wird der Unterschied des intraokularen Druckes zwischen behandeltem Auge und Kontrollauge bestimmt.
Beispielsweise zeigen die erfindungsgemässen Verbindungen der Beispiele 1 und 2a, bei einer Konzentration von etwa 20 bzw.

[4] = system: renal hypertensiven Hunden; assay: Arterial pressure and heart rate in conscious renal hypertensive dogs, oral dosing; format: in vivo, Hunde; conditions: oral dose 10 mg/kg
Text: Die antihypertensive und bradycardische Wirkung wird ebenso an wachen, chronisch hypertensiven Hunden untersucht; die Hypertension wird dabei durch eine Schwächung der Nierenfunktion erzeugt. Der arterielle Druck wird durch direkte perkutane Punktion der femuralen Arterie, unter Verwendung einer Nadel, die an ein Uebertragungsinstrument angeschlossen ist, registriert. Nach der Aufnahme von Kontrolldaten werden die Hunde oral einmal täglich, 4 Tage lang, mit Kapseln, welche die Testverbindung enthalten, behandelt. Der Blutdruck und die Herzfrequenz werden jeweils 1,5, 3, 6 und 24 Stunden nach der täglichen Dosis bestimmt und die Ergebnisse mit den vor der Behandlung erhaltenen Kontrollwerten verglichen.

[5] = 50 mg/kg p.o. once daily for 2 days

Structure (SMILES)	Abnahme des Bludrucks [1, 5] [mm Hg]	IC50 [2] [nM]	antihypertensive Wirkung [1]	bradycardische (d.h. die Herzfrequenz herabsetzende) Wirkung [1]	also measured
C#CCOc1ccccc1OCC(O)CN[C@H]1CC[C@H](N2CCNC2=O)CC1 (mixture of isomers) [Beispiel 3c]	-30.0	~4	–	–	–
O=C1NCCN1[C@H]1CC[C@@H](NCC(O)COc2ccccc2-n2cccc2)CC1 (stereo partly drawn) [Beispiel 3h]	-68.0	–	–	–	–
COc1ccccc1OCC(O)CN[C@H]1CC[C@@H](N2CCNC2=O)CC1 (stereo partly drawn) [Beispiel 3a]	-39.3	–	–	–	–
C=CCOc1ccccc1OCC(O)CN[C@H]1CC[C@@H](N2CCNC2=O)CC1 (mixture of isomers) [Beispiel 1, cis-1-(4-[3-(o-Allyloxyphenoxy)-2-hydroxypropylamino]-cyclohexyl)-2-imidazolidinon-hemifumarat]	-79.3	~80	deutliche	deutliche	Verminderung des intraokularen Druckes ([3]; concentration about 20 nM): deutliche Verminderung; Herzfrequenz [4]: herabsetzen; mittlerer arterieller Druck [4]: ununterbrochene Verringerung
C#CCOc1cccc(OCC(O)CN[C@H]2CC[C@@H](N3CCNC3=O)CC2)c1 (stereo partly drawn) [Beispiel 3d]	-52.3	–	–	–	–
N#Cc1ccccc1OCC(O)CN[C@H]1CC[C@H](N2CCNC2=O)CC1 (stereo partly drawn) [Beispiel 3g]	-33.0	–	–	–	–
COCCc1ccc(OCC(O)CN[C@H]2CC[C@@H](N3CCNC3=O)CC2)cc1 (stereo partly drawn) [Beispiel 3k]	-17.6	–	–	–	–
O=C1NCCN1[C@H]1CC[C@@H](NC[C@H](O)COc2ccccc2OCC2CC2)CC1 [Beispiel 2a, (S)-cis-1-(4-[3-(o-Cyclopropylmethoxyphenoxy)-2-hydroxypropylamino]-cyclohexyl)-2-imidazolidinon-hemifumarat]	–	~5	deutliche	deutliche	Verminderung des intraokularen Druckes ([3]; concentration about 6,4 nM): deutliche Verminderung; Abnahme des Bludrucks ([1]; 30 mg/kg p.o. once daily for 2 days): -75.5 mm Hg
O=C1NCCN1[C@H]1CC[C@@H](NCC(O)COc2ccccc2OCC2CC2)CC1 (mixture of isomers) [Beispiel 3m]	–	–	deutliche	deutliche	Herzfrequenz [4]: herabsetzen; mittlerer arterieller Druck [4]: ununterbrochene Verringerung
N#Cc1ccccc1OCC(O)CN[C@H]1CC[C@@H](N2CCNC2=O)CC1 (stereo partly drawn) [Beispiel 3f]	-11.0	–	–	–	–
